We go through 3 compounds from patent US20240285784A1, “PEPTIDIC CONJUGATES OF SN38 USEFUL IN THE TREATMENT OF CANCER” (FUNDACIÓ INSTITUT DE RECERCA BIOMÈDICA (IRB BARCELONA), priority 2020, published 2024).

For experiment [1], the system named is neuroblastoma patient-derived cell model HSJD-NB-005. The experiment is described as follows: MTS cell viability assay, neuroblastoma model HSJD-NB-005. In kind it is cell-based. The conditions noted are these: 72 h incubation, Example 9, Table 3, read-out: IC50 values against cancer cell lines. From the text: (§1) Cancer cell lines were obtained from the repository maintained at Hospital Sant Joan de Deu (Barcelona, Spain). Cancer cell lines used in these experiment included cancer types of adult glioma (U373 and U87 cell lines), pediatric gliomas including diffuse intrinsic pontine glioma (HSJD-DIPG-007, HSJD-DIPG-011), and pediatric high-grade glioma (HSJD-GBM-001), retinoblastoma (HSJD-RBT-5, HSJD-RBT-7 and HSJD-RBT-14), Ewing sarcoma (A673), rhabdomyosarcoma (Rd and RH4) and neuroblastoma (LAN-1 and SK-N-JD cell lines and HSJD-NB-004, HSJD-NB-005 and HSJD-NB-016 patient-derived cell models). […] To add the drugs to the cells in culture, SN38-linker A-MiniAp4 (Ia) and irinotecan were prepared in culture medium from stock solutions at concentration 1 mg/mL in water. SN38 was prepared in culture medium from a stock solution at concentration 1 mg/mL in DMSO. […] Activity curves were built for adult glioma cell lines U87 (FIG. 1) and U373 (FIG. 2), pediatric gliomas including DIPG models HSJD-DIPG-007 (FIG. 3) and HSJD-DIPG-011 (FIG. 4), and pediatric high-grade glioma model HSJD-GBM-001 (FIG. 5), retinoblastoma models HSJD-RBT-5 (FIG. 6), HSJD-RBT-7 (FIG. 7) and HSJD-RBT-14 (FIG. 8), Ewing sarcoma cell line A673 (FIG. 9), rhabdomyosarcoma cell lines Rd (FIG. 10) and RH4 (FIG. 11), neuroblastoma cell lines LAN-1 (FIG. 12) and SK-N-JD (FIG. 13) and neuroblastoma patient-derived cell models HSJD-NB-004 (FIG. 14), HSJD-NB-005 (FIG. 15) and HSJD-NB-016 (FIG. 16). The established IC50 values are in Table 3.

Experiment [2] deals with neuroblastoma patient-derived cell model HSJD-NB-004. The experiment is described as follows: MTS cell viability assay, neuroblastoma model HSJD-NB-004. In kind it is cell-based. The conditions noted are these: 72 h incubation, Example 9, Table 3, read-out: IC50 values against cancer cell lines.
Source text: as §1
(Formazan colour is commonly taken as a measure of viable cells.)

Experiment [3] deals with neuroblastoma cell line SK-N-JD. The experiment is described as follows: MTS cell viability assay, neuroblastoma cell line SK-N-JD. In kind it is cell-based. To be noted: 72 h incubation, Example 9, Table 3, read-out: IC50 values against cancer cell lines.
Source text: as §1

In experiment [4] the test system is neuroblastoma cell line LAN-1. The experiment is described as follows: MTS cell viability assay, neuroblastoma cell line LAN-1. In kind it is cell-based. The conditions noted are these: Example 9, Table 3, read-out: IC50 values against cancer cell lines.
Source text: as §1

For experiment [5], the system named is neuroblastoma patient-derived cell model HSJD-NB-016. The experiment is described as follows: MTS cell viability assay, neuroblastoma model HSJD-NB-016. In kind it is cell-based. The conditions noted are these: 72 h incubation, Example 9, Table 3, read-out: IC50 values against cancer cell lines.
Source text: as §1

In experiment [6] the test system is diffuse intrinsic pontine glioma HSJD-DIPG-011. The experiment is described as follows: MTS cell viability assay, DIPG model HSJD-DIPG-011. In kind it is cell-based. The conditions noted are these: 72 h incubation, Example 9, Table 3, read-out: IC50 values against cancer cell lines.
Source text: as §1

The test system of experiment [7] is Ewing sarcoma cell line A673. The experiment is described as follows: MTS cell viability assay, Ewing sarcoma cell line A673. In kind it is cell-based. The conditions noted are these: 72 h incubation, Example 9, Table 3, read-out: IC50 values against cancer cell lines.
Source text: as §1

Experiment [8] concerns retinoblastoma cell model HSJD-RBT-14. The experiment is described as follows: MTS cell viability assay, retinoblastoma model HSJD-RBT-14. In kind it is cell-based. To be noted: 72 h incubation, Example 9, Table 3, read-out: IC50 values against cancer cell lines.
Source text: as §1

Experiment [9] concerns adult glioma cell line U373. The experiment is described as follows: MTS cell viability assay, adult glioma cell line U373. In kind it is cell-based. The conditions noted are these: 72 h incubation, Example 9, Table 3, read-out: IC50 values against cancer cell lines.
Source text: as §1

Experiment [10] deals with retinoblastoma cell model HSJD-RBT-7. The experiment is described as follows: MTS cell viability assay, retinoblastoma model HSJD-RBT-7. In kind it is cell-based. The conditions noted are these: 72 h incubation, Example 9, Table 3, read-out: IC50 values against cancer cell lines.
Source text: as §1

Experiment [11] deals with diffuse intrinsic pontine glioma HSJD-DIPG-007. The experiment is described as follows: cells.
Source text: as §1
Cancer cell lines used in these experiments were pediatric gliomas including diffuse intrinsic pontine glioma HSJD-DIPG-007, and pediatric high-grade glioma HSJD-GBM-001. […] To add the drugs to the cells in culture, SN38-Linker A-MiniAp4 (Ia) and SN38-Linker B-THRre were prepared in culture medium from stock solutions at concentration 1 mg/mL in water. SN38 was prepared in culture medium from a stock solution at concentration 1 mg/mL in DMSO. […] Activity curves were built for cells HSJD-DIPG-007 (FIG. 20) and HSJD-GBM-001 (FIG. 21).
Cancer cell lines used in these experiments were pediatric gliomas including diffuse intrinsic pontine glioma HSJD-DIPG-007, and pediatric high-grade glioma HSJD-GBM-001. […] All compounds were prepared in culture medium from stock solutions at concentration 1 mg/mL in water. […] Activity curves were built for cells HSJD-DIPG-007 (FIG. 22) and HSJD-GBM-001 (FIG. 23).
Cancer cell line used in these experiment was HSJD-DIPG-007.

The subject of experiment [12] is retinoblastoma cell model HSJD-RBT-5. The experiment is described as follows: MTS cell viability assay, retinoblastoma model HSJD-RBT-5. To be noted: 72 h incubation, Example 9, Table 3, read-out: IC50 values against cancer cell lines. In kind it is cell-based.
Source text: as §1

[13] abbreviates: HSJD-DIPG-007, 72 h, read-out: IC50 values against cancer cell lines.

Like-named read-outs stand apart in the source and are kept apart here. *1 amine or outer side, *2 acyl side, *3 side chain or, on linkers, in order; H or OH if unused. Where a SMILES comes first, the peptide text is derived from it. Bridges are numbered along the chain shown (N, C = ends). [ ]: non-standard residue; d: D form. The star is where a group is joined. X1 = CCc1c2c(nc3ccc(O)cc13)-c1cc3c(c(=O)n1C2)COC(=O)[C@@]3(CC)OC(=O)CCCCn1cc(CCCC(=O)NCCCOCCOCCOCCCN*)nn1; Suc = O=C(CCC(=O)[*:2])[*:1]; Dap = NC[C@H](N)C(=O)O

What is called IC50 is the concentration needed to halve the response being measured. Turning to `CCc1c2c(nc3ccc(O)cc13)-c1cc3c(c(=O)n1C2)COC(=O)[C@]3(O)CC` [SN38, 7-ethyl-10-hydroxy-camptothecin], the IC50 in experiment [1] amounted to 12.5 nM; in experiment [2], 231 nM; in [3] (Neuroblastoma cell), 7.55 nM; in experiment [4] (LAN1, 72 h incubation), 1.96 nM; in experiment [5], 12.3 nM; in experiment [6] it was 1.12 nM. Further, the IC50 was determined as 0.462 nM in experiment [7] (Homo sapiens); 1.08 nM in [8]; 0.869 nM in experiment [9] (Homo sapiens, U373 MG); 0.335 nM in experiment [10]; 0.000739 µM in experiment [11] (HSJD-DIPG-007, 72 h, read-out: IC50 values (μM)); 0.00113 µM in experiment [11] (setting [13]). Further, the IC50 in experiment [11] (HSJD-DIPG-007, 72 h, read-out: IC50 values of compounds) worked out at 0.00151 µM; in [12] it was 10.3 nM.

Take `CCc1c2c(nc3ccc(OC(=O)N4CCC(N5CCCCC5)CC4)cc13)-c1cc3c(c(=O)n1C2)COC(=O)[C@]3(O)CC` [Irinotecan]: the IC50 in experiment [1] was determined as 8200 nM; in [2], 9840 nM; in experiment [3] (Neuroblastoma cell), 7760 nM; in experiment [4] (LAN1, 72 h incubation), 7000 nM; in experiment [5], 659 nM; in [6], 1200 nM. The half-maximal inhibitory concentration (IC50) in experiment [7] (Homo sapiens) worked out at 1440 nM; in experiment [8], 2600 nM; in [9] (Homo sapiens, U373 MG) it was 3720 nM; in experiment [10] it was 1120 nM; in experiment [11] (setting [13]), 4.75 µM; in experiment [12] it was 911 nM.

Take `CCc1c2c(nc3ccc(O)cc13)-c1cc3c(c(=O)n1C2)COC(=O)[C@@]3(CC)OC(=O)CCCCn1cc(CCCC(=O)NCCCOCCOCCOCCCNC(=O)CCC(=O)N[C@H]2CNC(=O)C[C@@H](C(N)=O)NC(=O)[C@H](CC(C)C)NC(=O)[C@H](C)NC(=O)[C@H]([C@@H](C)O)NC(=O)[C@H](CCC(=O)O)NC(=O)[C@@H]3CCCN3C(=O)[C@H](C)NC(=O)[C@H](CCCCN)NC2=O)nn1` [SN38-linker A-MiniAp4 (Ia)] ({X1-Suc}-[Dap]KAPETALD-NH2; lactam 1-9): the IC50 was determined as 51.5 nM in experiment [1]; 76.9 nM in experiment [2]; 13.9 nM in experiment [3]; 21.6 nM in [4] (72 h incubation); 25.6 nM in [5]; 72.9 nM in [6]. The IC50 in [7] stood at 3.8 nM; in experiment [8], 33.5 nM; in experiment [9] it was 6.65 nM; in [10], 15.1 nM; in experiment [11] (read-out: IC50 values (μM) against cancer cell lines, HSJD-DIPG-007, MTS, 72 h incubation, Example 12, Table 5), 0.0203 µM; in [11] (read-out: IC50 values against cancer cell lines, HSJD-DIPG-007, MTS, 72 h incubation, Example 9, Table 3), 0.0342 µM. Besides, the 50% inhibitory concentration (IC50) in [11] (read-out: IC50 values of compounds, HSJD-DIPG-007, MTS, 72 h incubation, Example 11, Table 4) turned out to be 0.0107 µM; in experiment [11] (read-out: IC50 values, HSJD-DIPG-007, MTS, 72 h incubation, Example 25, Table 8) it was 0.0278 µM; in [12], 92.1 nM.
